SMILES	melting point [°C]
Cc1ccc(C2CC(C(F)(F)F)=NN2c2ccc(S(N)(=O)=O)cc2)cc1C (stereo not shown) [Example 44]	152 to 155
CS(=O)(=O)c1ccc(C2CC(C(F)(F)F)=NN2c2ccc(Cl)cc2Cl)cc1 (stereo not shown) [Example 74]	103 to 106
CS(=O)(=O)c1ccc(N2N=C(C(F)(F)F)CC2c2ccccc2F)cc1 (stereo not shown) [Example 17]	117 to 121
Cc1ccc(C2CC(C#N)=NN2c2ccc(S(C)(=O)=O)cc2)cc1 (stereo not shown) [Example 43]	162 to 164
Cc1c(F)cccc1C1CC(C(F)(F)F)=NN1c1ccc(S(N)(=O)=O)cc1 (stereo not shown) [Example 55]	193 to 195
Cc1cccc(C2CC(C(F)(F)F)=NN2c2ccc(S(N)(=O)=O)cc2)c1 (stereo not shown) [Example 15]	125 to 128
CS(=O)(=O)c1ccc(N2N=CCC2c2ccccc2)cc1 (stereo not shown) [Example 32]	197 to 202
COc1ccc(C2CC(C(F)(F)F)=NN2c2ccc(S(N)(=O)=O)cc2)c(C)c1 (stereo not shown) [Example 56]	148 to 150
COc1ccc(C2CC(C(F)(F)F)=NN2c2ccc(S(N)(=O)=O)cc2)c(OC)c1 (stereo not shown) [Example 48]	121 to 126
COC(=O)C1=NN(c2ccc(S(N)(=O)=O)cc2)C(c2ccccc2)C1 (stereo not shown) [Example 38]	84 to 90
NS(=O)(=O)c1ccc(N2N=C(C(F)(F)F)CC2c2ccc(OC(F)(F)F)cc2)cc1 (stereo not shown) [Example 22]	134 to 137
COc1ccc(C2CC(C(F)(F)F)=NN2c2ccc(S(N)(=O)=O)cc2)cc1F (stereo not shown) [Example 46]	108 to 114
NS(=O)(=O)c1ccc(N2N=C(C(F)(F)F)CC2c2ccc(C(F)(F)F)cc2F)cc1 (stereo not shown) [Example 53]	170 to 173
NS(=O)(=O)c1ccc(N2N=C(C(F)(F)F)CC2c2ccccc2)cc1 (stereo not shown) [Example 5]	156 to 157
Cc1ccc(N2N=C(C(F)(F)F)CC2c2ccc(S(C)(=O)=O)cc2)cc1 (stereo not shown) [Example 4]	140 to 143
Cc1ccc(C2CC(C(F)F)=NN2c2ccc(S(N)(=O)=O)cc2)c(C)c1 (stereo not shown) [Example 50]	181 to 183
NS(=O)(=O)c1ccc(N2N=C(C(F)(F)F)CC2c2cccc(F)c2F)cc1 (stereo not shown) [Example 23]	152 to 154
NS(=O)(=O)c1ccc(N2N=C(C(F)(F)F)CC2c2ccccc2F)cc1 (stereo not shown) [Example 16]	166 to 168
COc1cc(F)ccc1C1CC(C(F)(F)F)=NN1c1ccc(S(N)(=O)=O)cc1 (stereo not shown) [Example 49]	179 to 182
CC1=NN(c2ccc(S(C)(=O)=O)cc2)C(c2ccc(C)cc2)C1 (stereo not shown) [Example 29]	113 to 117

SMILES	melting point [°C]
NS(=O)(=O)c1ccc(N2N=C(C(F)(F)F)CC2c2ccc(F)cc2)cc1 (stereo not shown) [Example 8]	154 to 156
COc1ccc(C2CC(C(F)(F)F)=NN2c2ccc(S(N)(=O)=O)cc2)cc1C (stereo not shown) [Example 45]	170 to 175
NS(=O)(=O)c1ccc(N2N=C(C(=O)O)CC2c2ccccc2)cc1 (stereo not shown) [Example 35]	157 to 164
CC1=NN(c2ccc(S(N)(=O)=O)cc2)C(c2ccc(C(F)(F)F)cc2)C1 (stereo not shown) [Example 30]	190 to 194
NS(=O)(=O)c1ccc(N2N=C(C(F)(F)F)CC2c2ccc(F)cc2C(F)(F)F)cc1 (stereo not shown) [Example 58]	174 to 177
CC1=NN(c2ccccc2)C(c2ccc(S(C)(=O)=O)cc2)C1 (stereo not shown) [Example 77]	132 to 135
CS(=O)(=O)c1ccc(C2CC=NN2c2ccc(F)cc2)cc1 (stereo not shown) [Example 78]	155 to 160
CS(=O)(=O)c1ccc(N2N=C(C(F)(F)F)CC2c2ccc(Cl)cc2Cl)cc1 (stereo not shown) [Example 12]	198 to 200
CC1=NN(c2ccc(S(C)(=O)=O)cc2)C(c2ccc(F)cc2)C1 (stereo not shown) [Example 27]	120 to 123
NS(=O)(=O)c1ccc(N2N=C(C(F)(F)F)CC2c2cccc(F)c2)cc1 (stereo not shown) [Example 18]	132 to 133
Cc1ccc(N2N=C(C(F)(F)F)CC2c2ccc(S(C)(=O)=O)cc2)c(C)c1 (stereo not shown) [Example 71]	132 to 133
COC(=O)C1=NN(c2ccc(S(N)(=O)=O)cc2)C(c2ccc(C)cc2)C1 (stereo not shown) [Example 37]	192 to 197
CS(=O)(=O)c1ccc(N2N=C(C(F)(F)F)CC2c2cccc(F)c2)cc1 (stereo not shown) [Example 19]	149 to 151
NS(=O)(=O)c1ccc(N2N=C(C(F)(F)F)CC2c2ccccc2Cl)cc1 (stereo not shown) [Example 60]	157 to 159
Cc1cccc(N2N=C(C(F)(F)F)CC2c2ccc(S(C)(=O)=O)cc2)c1 (stereo not shown) [Example 70]	114 to 116
NS(=O)(=O)c1ccc(N2N=C(C(F)(F)F)CC2c2ccc(Cl)cc2Cl)cc1 (stereo not shown) [Example 13]	143 to 145
COC(=O)C1=NN(c2ccc(S(C)(=O)=O)cc2)C(c2ccc(C)cc2)C1 (stereo not shown) [Example 39]	155 to 160
Cc1cc(F)ccc1C1CC(C(F)(F)F)=NN1c1ccc(S(N)(=O)=O)cc1 (stereo not shown) [Example 62]	154 to 160
CS(=O)(=O)c1ccc(C2CC(C(F)(F)F)=NN2c2cccc(F)c2)cc1 (stereo not shown) [Example 69]	116 to 117
Cc1ccc(C2CC(C(=O)O)=NN2c2ccc(S(C)(=O)=O)cc2)cc1 (stereo not shown) [Example 36]	202 to 205

From patent publication US20040034082A1, “Utilization of pyrazoline derivatives in the preparation of a medicament for the prevention and/or treatment of proliferative cell diseases” (priority 2001, published 2004)
